Assays:
Assay type in all cases: cell-based, Escherichia coli
[1] = test system: E. coli K-12 host strain LBB427 (untransformed and transformed with plasmid pXT1457); experiment: Growth of shake-flask cultures after glyphosate addition; conditions: glyphosate 3.38 grams per liter (20 millimolar) added 2.5 hours after inoculation; Vogel-Bonner minimal culture medium; 37 degrees Celsius
Description: (§1) To confirm that the new plasmid was functioning as expected, the wild-type E. coli K-12 host strain LBB427 was transformed with the plasmid pXT1457. Techniques for transforming bacteria, including strains of E. coli, are known in the art (Sambrook and Russell, 2001; Ausubel et al., 2005). The shikimic acid and phenylalanine production levels of this strain were compared to that of the untransformed host strain LBB427. […] At 24 hours after inoculation, the cells were pelleted by centrifugation, and the culture supernatants were analyzed by a high-pressure liquid chromatography (HPLC) assay for shikimic acid and phenylalanine content. […]
(§2) The untransformed host strain LBB427 and the host strain LBB427 transformed with the plasmid pXT1457 were grown in 50 milliliters of the Vogel-Bonner minimal culture medium described in Example 1. […] At 24 hours after inoculation (i.e., 21.5 hours after N-(phosphonomethyl)glycine addition), the cells were pelleted by centrifugation, and the culture supernatants were analyzed for shikimic acid content using the HPLC assay described in Example 1. The culture supernatants of the host strain LBB427 transformed with the plasmid pXT1457 were also analyzed for phenylalanine content.

[2] = test system: untransformed host strain LBB427; experiment: HPLC assay of culture supernatant after glyphosate treatment, untransformed strain
Description: as §1
[…] At 24 hours after inoculation (i.e., 21.5 hours after N-(phosphonomethyl)glycine addition), the cells were pelleted by centrifugation, and the culture supernatants were analyzed for shikimic acid content using the HPLC assay described in Example 1. The culture supernatants of the host strain LBB427 transformed with the plasmid pXT1457 were also analyzed for phenylalanine content. […]

[3] = test system: host strain LBB427 transformed with the plasmid pXT1457; experiment: HPLC assay of culture supernatant after glyphosate treatment, pXT1457 strain
Description: To confirm that the new plasmid was functioning as expected, the wild-type E. coli K-12 host strain LBB427 was transformed with the plasmid pXT1457. Techniques for transforming bacteria, including strains of E. coli, are known in the art (Sambrook and Russell, 2001; Ausubel et al., 2005). The shikimic acid and phenylalanine production levels of this strain were compared to that of the untransformed host strain LBB427. The strains were cultured in 50 milliliters of Vogel-Bonner minimal culture medium (Vogel and Bonner, 1956), consisting of magnesium sulfate heptahydrate (MgSO4-7H2O) at 298 milligrams per liter, anhydrous dibasic potassium phosphate (K2HPO4) at 14.93 grams per liter, sodium ammonium phosphate tetrahydrate (NaNH4HPO4-4H2O) at 5.22 grams per liter, anhydrous citric acid (the free acid form) at 2.73 grams per liter, and glucose at 2.00 grams per liter. The pH of the culture medium was 7.0. For the strain LBB427 transformed with the plasmid pXT1457, ampicillin was included in the culture medium at 100 milligrams per liter. The cultures were grown in flasks, on an incubator shaker operating at 300 rpm and 37 degrees Celsius. At 24 hours after inoculation, the cells were pelleted by centrifugation, and the culture supernatants were analyzed by a high-pressure liquid chromatography (HPLC) assay for shikimic acid and phenylalanine content. To the samples to be assayed, phosphoric acid was added to a final concentration of 6 millimolar. […]
as §2, with “content. […]” for “content.”

[4] = test system: host strain LBB427 transformed with the plasmid pXT1483; experiment: HPLC assay of culture supernatant after glyphosate treatment, pXT1483 strain
[5] = test system: host strain LBB427 transformed with the plasmid pXT1483; experiment: High-density phosphate-limited fermentation culture with glyphosate addition; conditions: optical density of 40; glyphosate 20 millimolar; twelve hours after addition; sample at pH 1.0, 60 degrees Celsius, 15 minutes
Description: The host strain LBB427 transformed with the plasmid pXT1483 can be grown to high optical densities in a phosphate-limited fermentation culture. Fermentations are conducted in a chemically-defined minimal medium containing 5.9 grams of anhydrous ammonium sulfate ((NH4)2SO4), 1.8 grams of anhydrous dibasic potassium phosphate (K2HPO4), 1.0 grams of monobasic sodium phosphate monohydrate (NaH2PO4—H2O), 550 milligrams of magnesium sulfate heptahydrate (MgSO4-7H2O), 27 milligrams of ferric chloride hexahydrate (FeCl3-6H2O), 0.5 milligrams of zinc sulfate heptahydrate (ZnSO4-7H2O), 0.9 milligrams of cobalt chloride hexahydrate (CoCl2-6H2O), 0.9 milligrams of sodium molybdate dihydrate (Na2MoO4-2H2O), 1.1 milligrams of cupric sulfate pentahydrate (CuSO4-5H2O), 0.3 milligrams of boric acid (H3BO3), and 0.7 milligrams of manganese sulfate monohydrate (MnSO4—H2O) per liter of water. The fermenter is maintained at 37 degrees Celsius. The pH is maintained at 7.0 by the controlled addition of concentrated (about 29%) ammonium hydroxide (NH4OH). […]
Twelve hours after N-(phosphonomethyl)glycine addition, samples of the fermentation cultures are taken for analysis of shikimic acid levels. […] The cells are pelleted by centrifugation, and the culture supernatants are analyzed for shikimic acid content using the HPLC assay described in Example 1.

[6] = glyphosate 20 millimolar and phosphate-limitation (PF culture medium), 24 hours after inoculation
[7] = glyphosate 20 millimolar, Vogel-Bonner minimal culture medium, 24 hours after inoculation (21.5 hours after addition)

With `O=C(O)CNCP(=O)(O)O` [glyphosate, N-(phosphonomethyl)-glycine] the “Growth of the cultures” value [1] was “almost completely inhibited”, the “shikimic acid in the culture supernatant” value [2, 6] was “about 200 milligrams of shikimic acid per OD unit per liter” and the “shikimic acid in the culture supernatant” value [2, 7] was “did not produce detectable levels of shikimic acid”. For the same molecule, the “shikimic acid in the culture supernatant” value [3, 6] was “about 250 milligrams of shikimic acid per OD unit per liter”, the “shikimic acid in the culture supernatant” value [3, 7] was “did not produce detectable levels of shikimic acid” and the “phenylalanine in the culture supernatant” value ([3]; glyphosate 20 millimolar, Vogel-Bonner minimal culture medium, 24 hours after inoculation, about 400 without glyphosate) was “about 50 milligrams of phenylalanine per OD unit per liter”. The “shikimic acid in the culture supernatant” value [4, 6] was “about 400 milligrams of shikimic acid per OD unit per liter”, the “level of shikimic acid in the culture supernatant” value ([4]; glyphosate 20 millimolar and phosphate-limitation, culture sample with cells adjusted to pH 1.0, heated to 60 degrees Celsius for 15 minutes) was “about 600 milligrams per OD unit per liter” and the “shikimic acid in the culture supernatant” value [5] was “about 24 grams of shikimic acid per liter”.

Reference: patent US8435769B2, “Use of glyphosate to produce shikimic acid in microorganisms” (Monsanto Technology LLC, priority 2007, dated 2013)
